Measured values reported in patent US20250085201A1, “SUBSTITUTED QUADRUPOLAR FLUORESCENT DYES FOR LIVE CELL IMAGING” (Northwestern University, priority 2023, published 2025).
Entries after “also recorded” stand apart in the source; their conditions may differ.

Experiments:
Solubility (qualitative) = assay type: physicochemical; conditions: Cl− salt
[1] = Absolute fluorescence quantum yield (integrating sphere); assay type: physicochemical; conditions: 414 nm excitation
[2] = Transient absorption (fsTA/nsTA) and time-resolved fluorescence spectroscopy; assay type: physicochemical; conditions: in H2O
Source text: The excited-state properties of these quadrupolar dyes were investigated using transient absorption (TA) spectroscopy. The TA data of dyes 1-4 and 6 in MeCN with lex=350 nm (FIGS. 9-12 and 15) show similar spectra with the same general electronic evolution, though with differing kinetics. Following excitation, strong excited-state absorption features appear between ˜450-500 nm along with a strong single peak in the near-infrared region, both of which are associated with Sn←S1 absorptions. The visible bands redshift over the following ˜100 ps, while the near-infrared band peaks first blueshift in the initial ˜10 ps before settling. These near-infrared absorption bands are similar to those observed^59,60 in extended bipyridinium compounds. Following these shifts, the excited states decay via emission with lifetimes between 3-4 ns as confirmed by time-resolved fluorescence (TRF) spectroscopy. The spectral shape of the transient species is generally maintained throughout their lifetimes, implying that the dynamics in each dye all occur on a single electronic excited state (S1) prior to emission. The spectral shifts at early times may arise due to excited-state symmetry breaking^77-78 in the quadrupolar dyes, wherein fluctuations in the instantaneous electrostatic environment afforded by the solvent transiently favor wavefunction localization on one side of the symmetric molecule, creating an excited state with a large dipole moment that is associated with the Stokes shift observed^79 in the fluorescence spectra. This localization can lead to changes in the transient absorption spectra as a result of the breakdown^42,80 of the Laporte rule. The shifts at longer times may arise from solvent or structural relaxation of the dyes.
Steady-state and time-resolved emission spectra for dyes 1-6, 7·2PF6 and 9·4PF6 were acquired using a HORIBA Fluorolog-3 spectrofluorometer, equipped with a time-correlated single photon counting (TCSPC) module (diode laser excitation at λ=375 nm) and an integrating sphere, which was used for absolute photo-luminescence quantum yield determinations. Picosecond time-resolved fluorescence measurements were recorded using a commercial direct-diode-pumped 100 kHz amplifier (Spirit 1040-HE, Spectra-Physics), producing a fundamental beam of 1040 nm (350 fs, 12 W) which was used to pump a non-collinear optical parametric amplifier (Spirit-NOPA, SpectraPhysics) capable of delivering tunable, high-repetition-rate pulses with pulse widths as short as sub-20 fs. Dyes 1-6, 7·2PF6 and 9·4PF6 were excited with 350 nm, 2 nJ laser pulses. Fluorescence was detected using a Hamamatsu C4780 Streakscope as previously described in the literature. Samples were prepared in 2-mm quartz cuvettes. All data were acquired in the single-photon-counting mode using the Hamamatsu HPD-TA software. The temporal resolution was approximately 2% of the sweep window. Single wavelength kinetic analysis was performed using a nonlinear least-squares fit to a sum of exponentials convoluted with an instrument response function. Visible and near-infrared femtosecond and nanosecond transient absorption (fsTA and nsTA, respectively) spectroscopies were performed following descriptions already recorded in the literature. The 330 nm, ˜100 fs pump pulses were generated at 1 μJ per pulse using a commercial collinear optical parametric amplifier (TOPAS-Prime, Light-Conversion, Ltd.); 414-nm pump pulses were obtained by second-harmonic generation of the 828 nm fundamental. The pump polarization was randomized using a commercial depolarizer (DPU-25-A, Thorlabs, Inc.) to eliminate any orientational dynamics resulting from the experiment. Spectra were collected on commercial spectrometers (customized Ultrafast Systems Helios and EOS spectrometers, for fsTA and nsTA, respectively) for each time window. All samples were stirred to avoid localized heating or degradation effects. The optical density was maintained at 0.6 for all samples. […]

[3] = as above; assay type: physicochemical; conditions: in H2O; remark: listed apart in the source
[4] = test system: MCF-7 breast cancer cells; experiment: Cell growth / cytotoxicity experiments (phase contrast imaging, cell number); assay type: cell-based; conditions: MCF-7 cells
Experimental: Small molecular dyes are known^86 to intercalate with the DNA on account of electrostatic and base-pair interactions. The presence of these interactions inhibits enzyme function, elevating the cytotoxicity in living cells. To test the cytotoxicity of dye 9·4Cl, (FIG. 6) a series of cell uptake and viability experiments using MCF-7 breast cancer cells were performed. […] Moreover, the cells were viable and treatments of up to 10 μM concentration are non-cytotoxic for up to 64 h post-treatment.
MCF-7 Cells were plated in a 96-well culture plate at a density of 0.01×10^6 cells per well in Dulbecco's modified eagle medium (DMEM) media with 10% fetal bovine serum (FBS) and 1% Penicillin-Streptomycin. Cells were cultured for 24 h then treated with the compounds at a range of concentrations from 0.1-50 μM. Upon treatment, cells were placed in a BioTek LionheartFX system, where they were imaged at 4× magnification every 3 h for 72 h under standard culture conditions (37° C., 5% CO2). Phase contrast images were processed and analyzed with BioTek Gen5 analysis software to identify cell number at each time point during the culture period.
MCF-7 Breast cancer cells were grown in standard Dulbecco's modified eagle medium (DMEM), which was supplemented with 10% Fetal Bovine Serum (FBS) and 1% Penicillin-Streptomycin (Corning). Cells were seeded into an 8-well imaging coverglass chamber (manufacturer-CellVis) or multiwell plate using phenol red free DMEM about 24 h prior to treatment. Dye 9·4Cl was resuspended in deionized H2O before being diluted to their final concentrations in the cell culture media. Cells were treated with the dye for 24 h prior to imaging. Uptake assays were carried out at concentrations from 1-50 μM, including a vehicle control (untreated). For the cell growth assays, cells were treated with the dye for 24 h at a range of concentrations from 0.1-50 μM.
For the cell cytotoxicity experiments, MCF-7 cells were plated in a 96-well culture plate at a density of 0.01×10^6 cells per well in DMEM media with 10% FBS and 1% Penicillin-Streptomycin. Cells were cultured for 24 h before being treated with the dye at a range of concentrations from 0.1-50 μM. After treatment, cells were placed in a BioTek LionheartFX system, where they were imaged at 4× magnification every 3 h for 72 h under standard (37° C., 5% CO2) culture conditions. Phase contrast images were processed and analyzed with BioTek Gen5 analysis software to identify cell numbers at each time point during the culture period.

## COc1cc2c(OC)cc1-c1cc[n+](cc1)Cc1ccc(cc1)C[n+]1ccc(cc1)-c1cc(OC)c(cc1OC)-c1cc[n+](cc1)Cc1ccc(cc1)C[n+]1ccc-2cc1 [9·4Cl]
Solubility (qualitative)
  solubility in H2O: readily soluble; also recorded: Water soluble
[1]
  ΦF in the solid-state (powder): 0.016±0.005
[2]
  rate constant k2 from TA data: (188 ± 4 ps)^−1 (ps)^−1
  rate constant k3 from TA data: (3.45 ± 0.01 ns)^−1 (ns)^−1
[2]; kR = kobsΦF
  radiative decay rate constant kR: (17.9 ± 0.6 ns)^−1 (ns)^−1
[3]
  CT state lifetime: 2.69±0.02 ns
  rate constant k1 from TA data: (1.4 ± 0.3 ps)^−1 (ps)^−1
[3]; kNR = kobs(1 − ΦF)
  non-radiative decay rate constant kNR: (3.16 ± 0.02 ns)^−1 (ns)^−1
[4]; concentrations of 5 μM and above
  cell growth: decreases gradually
[4]; higher concentrations (range tested up to 50 μM)
  cell death: minimal cell death is observed
[4]; low concentrations (up to 1 μM)
  growth of the cells versus non-treated control cells: comparable with that of non-treated control cells
[4]; treatments of up to 10 μM, up to 64 h post-treatment
  cytotoxicity: non-cytotoxic
